Reference: patent US5700640A, “Inducers of gamma globin gene expression and screening assays therefor” (priority 1994, dated 1997)

Experiments:
[1] = test system: gamma globin gene expression (gamma3'PE reporter) in K562 cells; experiment: gamma globin promoter-luciferase reporter assay in stably transfected gamma3'PE K562 cells; conditions: for reporter gene activity relative to VA or IVA (FIG. 5): 24 hours, fold-induction relative to isovaleric acid; for induction of gamma-globin reporter gene expression over time course (FIG. 3): 24-122 hr, normalized to viable cells; for fold induction at 5000 µM: Homo sapiens, K562, 72 h, read-out: fold induction of reporter gene activity (FIG. 6)
Method: The gamma globin 5' promoter and 3' enhancer fragments, alone or in combination with each other or another fragment, were inserted into restriction endonuclease sites flanking the coding sequences of the luciferase gene in pGL2 using standard recombinant DNA techniques (pGL2 was obtained commercially from Promega Biotech). Constructs were prepared which contained: 1) the gamma globin promoter alone upstream of the luciferase gene (gamma); 2) the gamma globin promoter upstream of the luciferase gene and the gamma globin 3' enhancer downstream of the luciferase gene (gamma3'PE); 3) the gamma globin promoter upstream of the luciferase gene and the SV40 enhancer downstream of the luciferase gene (gammaSV40); 4) the beta globin promoter upstream of the luciferase gene and the gamma globin 3' enhancer downstream of the luciferase gene Coeta3'PE); and 5) hypersensitive sites 2 and 3 G-IS2 and HS3) of the 5' globin enhancer upstream of the gamma globin promoter upstream of the luciferase gene and the gamma globin 3' enhancer downstream of the luciferase gene (HS2/3gamma3'PE). These constructs are illustrated schematically in FIG. 2.
The gamma globin-luciferase reporter gene constructs described in Example 1 were introduced into a human erythroleukemia cell line K562 (ATCC No. CCL 243). To create stable transfectants, K562 cells (5×10^6) in log phase were suspended in 400 μl HEPES buffered saline and then combined with 33.5 μg salmon testes DNA (Sigma), 1.5 μg neo plasmid (pPMT) and 15 μg reporter gene plasmid supercoiled that had been co-precipitated and suspended in 400 μl HEPES buffered saline. The DNA-cell mixture was electroporated at settings of 0.25 KV and 960 μFD using a Gene Pulser (BioRad Inc.) electropotation apparatus.
The cells were allowed to recover 10 minutes at room temperature, then added to 10 ml complete RPMI cell culture medium. Cell debris was removed by centrifugation at 1000 rpm for 5 minutes. The live cells were suspended in 20 ml RPMI in 2×10 cm dishes and grown in non-selective media for 48 hours. Stably transfected cells were then selected by growing the cells in media containing 300 μg/ml G418 for about one month. During this time the cells were split 1:5 every 3 to 4 days. Once the lines were stable, they were carried in 100 μg/ml G418. The cell lines were designated according to the reporter gene construct that was introduced into the cell line. For example, a cell line carrying the gamma'3PE construct was designated gamma3'PE. Transient transfections were carried out similarly except that the neo plasmid was omitted from the electroporation solution and the cells were not subjected to G418 selection.
K562 host cells carrying gamma globin-reporter gene constructs were used to lo screen compounds for their ability to induce globin gene expression, as measured by increased reporter gene activity in the host cells upon treatment with the compound. The host cells described in Example 2 were grown to log phase cells and plated at a density of 2×10^5 /ml in RPMI media without G418. After 24 hours, compounds to be assayed for their ability to induce globin gene expression were dissolved in RPMI media at a concentration of 5 mM and added to the K562 stable transfectants. Mock-treated stably transfected K562 cells served as a negative control. The cells were incubated with the test compounds at 37° C. for various time periods (e.g., 24, 50, 74 and 122 hours).
After induction with the test compounds, the cells were harvested, lysed and assayed for reporter gene activity (i.e., luciferase activity) as follows. Cells were collected, washed once with PBS and lysed in 200 μl Cell Culture Lysis 1 X Reagent (Promega Luciferase Assay System) consisting of 25 mM Tris-Phosphate pH 7.8; 2 mM DTT; 2 mM 1,2-diaminocyclohexane-N,N,N,N-tetraacetic acid; 10% glycerol; 1% Triton X-100.

gamma globin mRNA = experiment: Northern hybridization of gamma globin mRNA in treated K562 cells; type: cell-based, human; conditions: for Raw Value, gamma globin RNA / Normalized Value, gamma globin RNA: K562 cells, 5 mM, 96 hours; for Normalized Value, gamma globin RNA: normalized to 28S ribosomal RNA; for gamma globin mRNA steady state level: vs untreated cells or cells treated with BA
Method: (§1) Total RNA was prepared by the method of McDonald as described in Sambrook et al., (1989) Molecular Cloning: A Laboratory Manual, 2nd Edition, Cold Spring Harbor Laboratory Press. 10 μg total cellular RNA was electrophoresed through agarose gels containing 3.3% formaldehyde. The electrophoresed RNA was then transferred to nitrocellulose filters by standard methods. Each sample was hybridized to specific probes for gamma globin mRNA, mRNA encoding the erythroid specific transcription factor GATA-1 and 28S ribosomal RNA (which was used for standardization). The gamma globin and GATA-1 probes were cDNA probes, which were labeled with ^32 p by random priming reactions (Promega Biotech Inc.). The 28S ribosomal RNA probe was an oligonucleotide having the sequence 5' […] 3' (SEQ ID NO: 3), which was labeled by 5' end labeling using T4 polynucleotide kinase (New England Biolabs). Nucleotide probes were hybridized to the RNA nitrocellulose filters according to standard techniques. After hybridization, radioactive signals on the nitrocellulose filters were directly quantified using a BioRad GS-250 Molecular Imager. mRNA hybridization intensities were normalized to the amount of 28S ribosomal RNA present for each sample.

GATA-1 mRNA = experiment: Northern hybridization of GATA-1 mRNA in treated K562 cells; type: cell-based, human; conditions: for induction of mRNA encoding GATA-1: normalized data; for Normalized Value, GATA-1 RNA: normalized to 28S ribosomal RNA
Method: as §1

K562 cells = experiment: MTT cell viability assay in K562 cells
Method: (§2) To normalize luciferase units to the number of viable cells, parallel cell viability assays were performed using 3-(4,5-dimethylthiazol-2-yl)-2,5-diphenyltetrazolium bromide (MTT) (Vistica, D. T. et al. (1991) Cancer Res. 51:2515-2520). Transfected K562 cells were plated in 96 well dishes at a density of 2×10^4 and 2×10^3 cells per 100 μl per well. 24 hours later, the cells were treated with test compounds (at a final concentration of 5 mM). At 24, 50, 74 or 122 hours after treatment, 50 μl of 3 mg/ml MTT in PBS was added to each well. The 96 well plate was then incubated at 37° C. for 4 to 5 hours. The formazan derivatives formed from tetrazolium by viable cells were solubilized by the addition of 50 μl/well 25% SDS, pH 3, overnight at 37° C. The plates were than read at a wavelength of 550 nm.

in vitro = conditions: human, k562 cells
Method: as §2

[2] = test system: BA-mediated induction of luciferase activity in gamma3'PE K562 cells; experiment: effect of transport inhibitors on BA-induced reporter gene activity in gamma3'PE K562 cells; type: cell-based, human; conditions: acetazolamide 1 mM, SITS 10 μM, amiloride 10 μM; 24 hours with BA
Method: To characterize uptake of butyric acid by erythroid cells, K562 cells stably transfected with gamma3'PE were treated with BA in the presence of various transport inhibitors. […] Cells were maintained in the continuous presence of both BA and the inhibitor for 24 hours and then luciferase activity in the cells was measured.

[3] = test system: gamma globin reporter gene activity in gamma3'PE K562 cells (protein kinase C activation); experiment: effect of indolactam V stereoisomers on basal and BA-induced reporter gene activity; type: cell-based, human; conditions: for effect on BA-induced globin gene expression (fold increment vs untreated cells) / effect on basal level globin gene expression: 11 μM or 0.4 μM; for effect on BA-induced globin gene expression (fold increment vs untreated cells): 1 hour before 5 mM BA for 24 hours; for effect on basal level globin gene expression: no BA
Method: The role of activated protein kinase C (pKC) in the activation of gamma globin gene expression by BA was investigated. […] The chemical structures of these compounds are shown in FIG. 13, panel A and B, respectively. Gamma3'PE cells were pre-incubated with either inducer (at 11 μM or 0.4 μM) or left untreated for 1 hour prior to treatment with 5 mMBA for 24 hours, followed by harvesting of the cells and assaying of luciferase activity. The results are shown in FIG. 14, Panel A (11 μM inducer) and FIG. 14, Panel B (0.4 μM inducer). […] Thus, it appears that these compounds act synergistically through pathways converging at some point downstream of the initial site of action of either inducer.

[4] = compared with induction mediated by BA

O=C(O)CCc1ccccc1 [3-phenyl propionic acid]
reporter gene activity relative to VA or IVA (FIG. 5) ([1]; 5 mM): detectable reporter gene activity, although to a lesser extent than VA or IVA

CC(C)CC(=O)O [IVA, isovaleric acid]
Raw Value, gamma globin RNA (gamma globin mRNA): 5.94 × 10^6
Normalized Value, gamma globin RNA (gamma globin mRNA): 5.3 × 10^6
gamma globin mRNA steady state level (gamma globin mRNA): higher steady state level of gamma globin mRNA than untreated cells or cells treated with BA
induction of mRNA encoding GATA-1 (GATA-1 mRNA): significant induction of mRNA encoding GATA-1
Normalized Value, GATA-1 RNA (GATA-1 mRNA; K562 cells, 5 mM, 96 hours): 1.3 × 10^6
induction of gamma-globin reporter gene expression over time course (FIG. 3) ([1]; 5 mM): lower but sustained induction of reporter gene expression
cell death accompanying gamma globin gene induction (K562 cells; [4]): significantly less cell death than induction mediated by BA

C#CCCC(=O)O [4PyA, 4-pentynoic acid]
fold induction at 5000 µM [1]: ~4
viability at 72 h, 5000 µM (in vitro): > 50%
cell death accompanying gamma globin gene induction (K562 cells): significantly less cell death than induction mediated by BA

CCCCC(=O)OC(=O)CCCC [valeric acid anhydride]
reporter gene activity relative to VA or IVA (FIG. 5) ([1]; 5 mM): detectable reporter gene activity, although to a lesser extent than VA or IVA

N=C(N)NC(=O)c1nc(Cl)c(N)nc1N [amiloride]
effect on BA-mediated induction of luciferase activity [2]: did not affect BA-mediated induction of luciferase activity

CC(C)[C@H]1C(=O)N[C@H](CO)Cc2c[nH]c3cccc(c23)N1C [(-) indolactam V]
effect on BA-induced globin gene expression (fold increment vs untreated cells) [3]: same fold increment
effect on basal level globin gene expression [3]: significant stimulatory effect on basal level globin gene expression
net increase in gene expression of combined treatment with BA ([3]; combined (-) indolactam V and 5 mM BA): well above the arithmetic sum of the level of induction achieved by either of these compounds separately

CC(=O)Nc1nnc(S(N)(=O)=O)s1 [acetazolamide]
effect on BA-mediated induction of luciferase activity [2]: did not affect BA-mediated induction of luciferase activity

O=C(O)CCCc1ccccc1 [4-phenyl butyric acid]
reporter gene activity relative to VA or IVA (FIG. 5) ([1]; 5 mM): detectable reporter gene activity to a slightly greater extent than VA or IVA

CC(=O)Nc1ccc(C=Cc2ccc(N=C=S)cc2S(=O)(=O)O)c(S(=O)(=O)O)c1 [SITS]
effect on BA-mediated induction of luciferase activity [2]: did not affect BA-mediated induction of luciferase activity

COCC(=O)O [MoAA, methoxyacetic acid]
fold induction at 5000 µM [1]: ~4
viability at 72 h, 5000 µM (in vitro): > 50%
cell death accompanying gamma globin gene induction (K562 cells; [4]): significantly less cell death than induction mediated by BA

CC(C)[C@@H]1C(=O)N[C@@H](CO)Cc2c[nH]c3cccc(c23)N1C [(+) indolactam V]
effect on BA-induced globin gene expression (fold increment vs untreated cells) [3]: same fold increment
effect on basal level globin gene expression [3]: unaffected

O=C(O)CCCCc1ccccc1 [5-phenyl valeric acid]
reporter gene activity relative to VA or IVA (FIG. 5) ([1]; 5 mM): detectable reporter gene activity, although to a lesser extent than VA or IVA

CCCCC(=O)O [VA, valeric acid]
fold induction at 5000 µM (gamma globin mRNA; Homo sapiens, K562, 96 h, read-out: Fold Induction, gamma globin RNA): 4.4
Raw Value, gamma globin RNA (gamma globin mRNA): 3.35 × 10^6
Normalized Value, gamma globin RNA (gamma globin mRNA): 3.3 × 10^6
gamma globin mRNA steady state level (gamma globin mRNA): higher steady state level of gamma globin mRNA than untreated cells or cells treated with BA
fold induction at 5000 µM (GATA-1 mRNA; Homo sapiens, K562, 96 h, read-out: Fold Induction, GATA-1 RNA): 6
Raw Value, GATA-1 RNA (GATA-1 mRNA; K562 cells, 5 mM, 96 hours): 3.96 × 10^5
induction of mRNA encoding GATA-1 (GATA-1 mRNA): significant induction of mRNA encoding GATA-1
Normalized Value, GATA-1 RNA (GATA-1 mRNA; K562 cells, 5 mM, 96 hours): 3.5 × 10^5
induction of gamma-globin reporter gene expression over time course (FIG. 3) ([1]; 5 mM): lower but sustained induction of reporter gene expression
induction relative to BA at 74 hr (FIG. 4) ([1]; 5 mM, normalized to fold induction by BA, 74 hr): marginally better inducers than BA at 74 hr
induction relative to BA at 122 hr (FIG. 4) ([1]; 5 mM, normalized to fold induction by BA, 122 hr): significantly better inducers than BA at 122 hr post induction
cell death accompanying gamma globin gene induction (K562 cells): significantly less cell death than induction mediated by BA
cell viability relative to untreated cells (FIG. 7) (K562 cells): equivalent to that of untreated cells

CSCC(=O)O [MtAA, methylthioacetic acid]
fold induction at 5000 µM [1]: ~5
viability at 72 h, 5000 µM (in vitro): > 50%
cell death accompanying gamma globin gene induction (K562 cells): significantly less cell death than induction mediated by BA

CCC(=O)O [propionic acid]
reporter gene activity relative to VA or IVA (FIG. 5) ([1]; 5 mM): detectable reporter gene activity, although to a lesser extent than VA or IVA
